Drawing on ChEMBL document CHEMBL4483862, “Open-source discovery of chemical leads for next-generation chemoprotective antimalarials” (2018), this text covers IC50 and IC90 for 36 compounds.

The experiment concerns Plasmodium berghei. Kind of experiment: Luciferase/luciferin-expressing antifolate-resistant parasites were used to infect a culture of HepG2 cells that were pre-incubated with compounds. Infected hepatocytes emit light due to the luciferase reaction. Assay results are presented as the percent inhibition of light emission compared to control. […]. In kind it is functional. The note with it: sporozoite; for IC90: read-out: LUCIFERASE INFECTION ASSAY - IC90.

[1] abbreviates: read-out: LUCIFERASE INFECTION ASSAY - IC50.

pIC50: −log10 of the molar value.

A word on the pIC50: it is the IC50 on a negative log10 scale, so that one unit is a factor of ten. For orientation: IC90 means the point of the concentration-response curve where the effect stands at 90%. `c1cnc(N2CCN(CCCNc3ncnc4sccc34)CC2)nc1`: the 90% effect concentration (IC90) was more than 10 µM. The pIC50 (FFLUC_HILL_SLOPE 14.8, FFLUC_R_SQUARED 0.258, HEPG2TOX_HILL_SLOPE 2.5, HEPG2TOX_R_SQUARED 0.964, PBLUC_HILL_SLOPE 9.27, PBLUC_R_SQUARED 0.473, read-out: LUCIFERASE INFECTION ASSAY - IC50) was 5.07.
In the case of `CC(=O)c1c(C)[nH]c(C(=O)C(C)Sc2nc3ccccc3o2)c1C` (configuration not stated), the 90% effect concentration (IC90) was more than 10 µM. Moreover, the pIC50 (HEPG2TOX_HILL_SLOPE 2.15, HEPG2TOX_R_SQUARED 0.56, PBLUC_HILL_SLOPE 10.4, PBLUC_R_SQUARED 0.465, read-out: LUCIFERASE INFECTION ASSAY - IC50) was 5.07.
On to `COc1cccc(NCC2(c3ccnc(-c4ccccc4Cl)c3)CC2)c1`, for which the IC90 was more than 10 µM. Moreover, the pIC50 under setting [1] is less than 5.00.
`CCOC(=O)c1c(-c2ccc(F)cc2)csc1NC(=O)CSc1nc2c(c(-c3ccccc3)c1C#N)C(=O)CC(C)(C)C2`: the concentration for an effect of 90% (IC90) was more than 10 µM. Further, the negative-log IC50 (pIC50) (FFLUC_HILL_SLOPE 18.8, FFLUC_R_SQUARED 0.892, read-out: LUCIFERASE INFECTION ASSAY - IC50) was less than 5.00.
As for `Cc1nn(-c2ccccc2)c(C)c1CC(=O)Nc1ccc2c(c1)OC(F)(F)O2`, the 90% effect concentration (IC90) is more than 10 µM. Besides, the negative logarithm of the IC50 (pIC50) under setting [1] is less than 5.00.
Turning to `Cc1cc(I)ccc1N1C(=O)C=CC1=O`, the IC90 is more than 10.5 µM. Besides, the negative logarithm of the IC50 (pIC50) under setting [1] was 5.26.
In the case of `CC(NC(=O)c1nc(-c2ccccc2)n(-c2ccccc2)n1)C12CC3CC(CC(C3)C1)C2` (configuration not stated), the concentration for an effect of 90% (IC90) was 5.28 µM. Also, the pIC50 (HEPG2TOX_HILL_SLOPE 3.46, HEPG2TOX_R_SQUARED 0.871, PBLUC_HILL_SLOPE 90.3, PBLUC_R_SQUARED 0.516, read-out: LUCIFERASE INFECTION ASSAY - IC50) was 5.29.
In the case of `O=C(/C(Br)=C/c1ccc([N+](=O)[O-])cc1)c1ccccc1`, the IC90 was more than 10 µM. The negative-log IC50 (pIC50) (HEPG2TOX_HILL_SLOPE 17, HEPG2TOX_R_SQUARED 0.837, PBLUC_HILL_SLOPE 13.5, PBLUC_R_SQUARED 0.0643, read-out: LUCIFERASE INFECTION ASSAY - IC50) is 5.04.
For the compound `CCOC(=O)c1c(C)[nH]c(C(=O)C(C)OC(=O)c2c3c(nc4ccccc24)/C(=C/c2ccc(F)cc2)CCC3)c1C` (configuration not stated), the IC90 is more than 10 µM. In addition, for the setting “HEPG2TOX_HILL_SLOPE 0.182, HEPG2TOX_R_SQUARED 0.103, read-out: LUCIFERASE INFECTION ASSAY - IC50”, the pIC50 is less than 5.00.
As to `CCCN(CC(=O)N1N=C(c2ccc(C)cc2)CC1c1ccco1)Cc1nnc(-c2ccco2)o1` (configuration not stated), the IC90 is more than 10 µM. In addition, the negative-log IC50 (pIC50) under setting [1] was less than 5.00.
For `COc1ccc(CNC(=O)NC2CCCCCCC2)cn1` the same measures were more than 10 µM and less than 5.00.
With `CNC(=O)c1cccc(-c2ccc3ncc(-c4cccc(OC(F)(F)F)c4)n3n2)c1`, the concentration for an effect of 90% (IC90) worked out at 4.88 µM. For the same compound, for the setting “PBLUC_HILL_SLOPE 8.51, PBLUC_R_SQUARED 0.256, read-out: LUCIFERASE INFECTION ASSAY - IC50”, the negative logarithm of the IC50 (pIC50) is 5.42.
Regarding `Cc1cccc(N2CCN(C(=O)c3ccccc3SCC(=O)Nc3ccc(F)cc3)CC2)c1C`, the IC90 was more than 10 µM. In addition, the pIC50 (HEPG2TOX_HILL_SLOPE 6.74, HEPG2TOX_R_SQUARED 0.191, PBLUC_HILL_SLOPE 2.5, PBLUC_R_SQUARED 0.41, read-out: LUCIFERASE INFECTION ASSAY - IC50) was 5.26.
For the compound `CC(C)(C)c1ccc(CSc2nncn2-c2ccc(OCc3ccccc3)cc2)cc1`, the IC90 was more than 7.68 µM. Also, the negative-log IC50 (pIC50) (PBLUC_HILL_SLOPE 2.75, PBLUC_R_SQUARED 0.0661, read-out: LUCIFERASE INFECTION ASSAY - IC50) was 5.27.
For the compound `O=C(c1cc(C2=NNC(=Nc3ccc(Cl)cc3)SC2)c[nH]1)N1CCCC1`, the concentration for an effect of 90% (IC90) is more than 10 µM. Besides, the pIC50 (PBLUC_HILL_SLOPE 2.6, PBLUC_R_SQUARED 0.441, read-out: LUCIFERASE INFECTION ASSAY - IC50) is 5.26.
On to `Cc1c(Cl)cc(NC(=O)Nc2ccccc2)c(O)c1Cl`, for which the IC90 was more than 10.6 µM. Moreover, for the setting “PBLUC_HILL_SLOPE 11.8, PBLUC_R_SQUARED 0.519, read-out: LUCIFERASE INFECTION ASSAY - IC50”, the pIC50 is 5.01.
`O=C(CSCc1cccs1)Nc1nc(-c2ccccn2)cs1`: the IC90 stood at 9.38 µM. In addition, where the note is “PBLUC_HILL_SLOPE 22, PBLUC_R_SQUARED 0.337, read-out: LUCIFERASE INFECTION ASSAY - IC50”, the pIC50 was 5.07.
As for `COc1ccc2cc(C(C)C(=O)N/N=C/c3ccccc3O)ccc2c1` (configuration not stated), the concentration for an effect of 90% (IC90) is more than 9.47 µM. For the setting “HEPG2TOX_HILL_SLOPE 3.47, HEPG2TOX_R_SQUARED 0.909, PBLUC_HILL_SLOPE 4.89, PBLUC_R_SQUARED 0.506, read-out: LUCIFERASE INFECTION ASSAY - IC50”, the pIC50 was 5.17.
As to `C=CCN(C(=O)c1cccc(S(=O)(=O)N2CCCC2)c1)c1nc2c(s1)CCCC2`, the 90% effect concentration (IC90) came out at 8.77 µM. Further, the pIC50 (HEPG2TOX_HILL_SLOPE 2.26, HEPG2TOX_R_SQUARED 0.795, PBLUC_HILL_SLOPE 11.6, 3.98, PBLUC_R_SQUARED 0.244, 0.586, read-out: LUCIFERASE INFECTION ASSAY - IC50) is 5.14.
Take `COc1ccc(-c2cc3ncc(-c4ccccc4)c(N)n3n2)cc1`: the concentration for an effect of 90% (IC90) came to 4.1 µM. The negative-log IC50 (pIC50) (PBLUC_HILL_SLOPE 17.3, PBLUC_R_SQUARED 0.589, read-out: LUCIFERASE INFECTION ASSAY - IC50) is 5.44.
Regarding `Cc1nn(-c2ccccc2)c2nc(-c3cccs3)cc(C(=O)Nc3cc(Cl)ccc3N3CCN(C)CC3)c12`, the concentration for an effect of 90% (IC90) was 9.44 µM. Also, the negative logarithm of the IC50 (pIC50) (PBLUC_HILL_SLOPE 12, PBLUC_R_SQUARED 0.52, read-out: LUCIFERASE INFECTION ASSAY - IC50) was 5.11.
In the case of `O=S(=O)(c1ccc(C2=NNC(=NC3CC3)SC2)cc1)N1CCCCC1`, the IC90 is more than 10 µM. The pIC50 under setting [1] was less than 5.00.
As to `Cc1nc2ccccc2nc1SCC(=O)Nc1ccccc1N1CCOCC1`, the concentration for an effect of 90% (IC90) is more than 10 µM. Besides, the pIC50 under setting [1] is less than 5.00.
For `Cc1ccc(C(=O)c2c3c4sc5ccccc5n4c(-c4ccc(C)cc4)nc-3[n+](-c3ccccc3)c2O)cc1`, in that order: more than 10 µM and less than 5.00.
Take `CN1CCN(c2ccccc2/C=N\Nc2cc(Cl)ccc2Cl)CC1`: the IC90 is more than 9.08 µM. Moreover, the negative-log IC50 (pIC50) (PBLUC_HILL_SLOPE 2.04, PBLUC_R_SQUARED 0.6, read-out: LUCIFERASE INFECTION ASSAY - IC50) was 5.41.
As for `CCc1c(C)sc2nc(SCC3COc4ccccc4O3)n(-c3ccc(O)cc3C)c(=O)c12` (configuration not stated), the IC90 was more than 10 µM. Moreover, the negative-log IC50 (pIC50) (FFLUC_HILL_SLOPE 1.97, FFLUC_R_SQUARED 0.841, read-out: LUCIFERASE INFECTION ASSAY - IC50) is less than 5.00.
With `COc1ccc(F)cc1-c1ccnc2n[nH]c(-c3ccc(Cl)cc3)c12`, the IC90 was more than 10 µM. For the same compound, the negative logarithm of the IC50 (pIC50) (HEPG2TOX_HILL_SLOPE 2.34, HEPG2TOX_R_SQUARED 0.976, PBLUC_HILL_SLOPE 1.09, PBLUC_R_SQUARED 0.396, read-out: LUCIFERASE INFECTION ASSAY - IC50) was 5.74.
For the compound `O=C(CNc1cccc(S(=O)(=O)N2CCCCC2)c1)NC(=O)NC1CCCC1`, the concentration for an effect of 90% (IC90) is more than 10 µM. Besides, where the note is “HEPG2TOX_HILL_SLOPE 4.49, HEPG2TOX_R_SQUARED 0.873, PBLUC_HILL_SLOPE 2.27, PBLUC_R_SQUARED 0.353, read-out: LUCIFERASE INFECTION ASSAY - IC50”, the pIC50 is 5.13.
As for `Cc1cc(/C=C(\C#N)C(=O)OCC(=O)c2c(N)n(CC(C)C)c(=O)n(C)c2=O)c(C)n1CC(C)C`, the IC90 was more than 10 µM. The pIC50 (PBLUC_HILL_SLOPE 2.67, PBLUC_R_SQUARED 0.243, read-out: LUCIFERASE INFECTION ASSAY - IC50) is 5.11.
For the compound `Cc1nn2c(nc(Sc3nc4ccccc4o3)c3ccccc32)c1/C=N/NC(=O)c1cccc(S(=O)(=O)N2CCOCC2)c1`, the concentration for an effect of 90% (IC90) was more than 10 µM. Moreover, the pIC50 under setting [1] is less than 5.00.
For the compound `Oc1c2n(c(=S)n1-c1ccc(Cl)cc1)CCS2`, the 90% effect concentration (IC90) is more than 11.6 µM. Also, for the setting “FFLUC_HILL_SLOPE 3.58, FFLUC_R_SQUARED 0.45, PBLUC_HILL_SLOPE 7.55, PBLUC_R_SQUARED 0.0946, read-out: LUCIFERASE INFECTION ASSAY - IC50”, the negative logarithm of the IC50 (pIC50) is 4.98.
As for `CCC(=O)N1CCCC(C(=O)NCc2ccc(C(C)C)cc2)CC1` (configuration not stated), the IC90 is more than 9.99 µM. Further, under setting [1], the negative logarithm of the IC50 (pIC50) was less than 5.00.
Take `CCCN1CCc2nc(NCc3cccc(Oc4ccccc4)c3)ncc2C1`: the IC90 was more than 8.81 µM. Also, where the note is “PBLUC_HILL_SLOPE 1.46, PBLUC_R_SQUARED 0.3, read-out: LUCIFERASE INFECTION ASSAY - IC50”, the pIC50 was 5.41.
As to `COc1ccc(-c2noc(CN3CCN(C(=O)c4nn(-c5cccc(Cl)c5)nc4C)CC3)n2)cc1`, the concentration for an effect of 90% (IC90) was more than 10 µM. Further, under “HEPG2TOX_HILL_SLOPE 14.4, HEPG2TOX_R_SQUARED 0.481, PBLUC_HILL_SLOPE 15.9, PBLUC_R_SQUARED 0.0941, read-out: LUCIFERASE INFECTION ASSAY - IC50”, the pIC50 was 5.04.
Regarding `COc1cc2c(cc1OC)CN(c1nc(CN3CCOCC3)nc3sc4c(c13)CCC(C)C4)CC2` (configuration not stated), the concentration for an effect of 90% (IC90) stood at 3.91 µM. The negative-log IC50 (pIC50) (PBLUC_HILL_SLOPE 15.9, PBLUC_R_SQUARED 0.656, read-out: LUCIFERASE INFECTION ASSAY - IC50) was 5.47.
Take `COc1ccc(C(=O)NCC(C)(C)SCc2c(C)cc(C)cc2C)cc1`: the IC90 was more than 8.88 µM. For the same compound, the pIC50 (PBLUC_HILL_SLOPE 1.94, PBLUC_R_SQUARED 0.532, read-out: LUCIFERASE INFECTION ASSAY - IC50) was 5.51.
